Test results taken from patent US12366579B2, “Sulfur-heterocycle exchange chemistry and uses thereof” (University of Virginia Patent Foundation, priority 2019, dated 2025).

Assays:
Type in all cases: binding
[1] = molecular target: T1, membrane proteins in human cell proteomes (Homo sapiens, UniProt P51970); test: Chemical proteomic identification of membrane protein lysine sites modified by TH211; conditions: NDUA8 human, Uniprot P51970; amino acid modified K
T1 construct: endogenous in cells
Protocol: (§1) The light proteome aliquots (2.3 mg/mL, 432 μL) were treated with the probe (5 μL, 100× fresh stock in DMSO) and the heavy proteome aliquots were treated with either the same probe or DMSO (no probe) at 37° C. for 1 h. Then the samples were subjected to click reaction with the desthiobiotin-PEG3-azide (10 mM in DMSO, 10 μL, final concentration 200 μM) in the presence of TCEP (50 mM, 10 μL), TBTA (1.7 mM, 33 μL) and CuSO4 (50 mM, 10 μL) at room temperature for 1 h. The light and the heavy were mixed in the chloroform-methanol extraction step. The subsequent steps including reduction with dithiothreitol, alkylation with iodoacetamide, digestion with Trypsin/Lys-C, enrichment with avidin beads were conducted as previously described.^72,51
(§2) Data acquisition: The enriched peptide samples were analyzed by LC-MS/MS on an Easy-nLC 1200 (Thermo Scientific, Waltham, Massachusetts, United States of America) coupled with an Orbitrap Q Exactive Plus mass spectrometer (Thermo Scientific, Waltham, Massachusetts, United States of America). […] A top 10 data-dependent acquisition method was used, which consisted of one full scan […] scan (m/z 375-1,500) followed by ten MS2 scans of the most abundant ions recorded in the […] scan.
(§3) Data analysis: Identification of peptides and target proteins from the LC-MS/MS raw data was achieved using the Byonic software package (Protein Metrics Inc., Cupertino, California, United States of America) to search against a modified human protein database (UniProt human protein database, angiotensin I and vasoactive intestinal peptide standards; 40660 proteins) with parameters previously described.^72 Identification of probe-modified peptides was accomplished with variable (common) modification of +635.27374 Da for TH211, +608.26284 for TH214, +578.25228 for TH216 on tyrosine and lysine residues. Other added mass such as variable methionine oxidation (+15.9949 Da), fixed cysteine carbamidomethylation (+57.02146 Da) and the SILAC heavy amino acids (+10.0083 Da for R, +8.0142 Da for K) were included in search. The results from Byonic search were imported into Skyline-daily to determine SILAC ratio (SR) of light/heavy peptides.^51 To account for variations in mixing and sample preparation, SRs of peptide from probe/no-probe (the light was treated with the probe while the heavy was treated with DMSO) were normalized to those from probe/probe (both the light and the heavy were treated with the probe). Unless otherwise stated, the results from Skyline-daily output were filtered in R to keep peptides of high quality that meet the following criteria: Byonic score ≥300; a precursor mass error within 5 ppm; normalized SR≥5, with both isotop dot-product (iDOTP) and ratio dot-product (rDOTP)≥0.8. Comparison of probe-modified sites across all probes and cells were performed using the R package ggplot2 and Venn diagrams were generated with the VennDiagram R package.^72 Other bioinformatics analysis such as the domain enrichment analysis and the DrugBank analysis were performed as previously described.^72

[2] = molecular target: T2, membrane proteins in human cell proteomes (Homo sapiens, UniProt Q02750); test: as above; conditions: MP2K1 human, Uniprot Q02750; amino acid modified K
T2 construct: endogenous in cells
Protocol: as §1, §2, §3

[3] = molecular target: T3, membrane proteins in human cell proteomes (Homo sapiens, UniProt Q9BQB6); test: as above; conditions: VKOR1 human, Uniprot Q9BQB6, amino acid modified K
T3 construct: endogenous in cells
Protocol: as §1, §2, §3

[4] = molecular target: T4, membrane proteins in human cell proteomes (Homo sapiens, UniProt Q9P032); test: as above; conditions: NDUF4 human, Uniprot Q9P032; amino acid modified K
T4 construct: endogenous in cells
Protocol: as §1, §2, §3

[5] = test system: membrane proteins in human cell proteomes; test: as above; conditions: amino acid modified K
Protocol: as §1, §2, §3

[6] = molecular target: T5, recombinant human diacylglycerol kinase-alpha (DGKA) (Homo sapiens, UniProt P23743); test: Gel-based probe labeling of recombinant DGKA with TH SuTEx probes; conditions: FIG. 39D, left panel
T5 construct: FLAG (N); made in house; host or cells: HEK293T, transient transfection; lysate used unpurified
Protocol: Gel-Based Chemical Proteomic Assay
Proteome aliquots (2 mg/mL, 49 μL) were treated with probes at indicated concentration (1 μL, 50× stock in DMSO) at 37° C. for 1 h. The subsequent conjugation with fluorophore was accomplished by copper-catalyzed azide-alkyne cycloaddition (CuAAC) with rhodamine-azide (TAMRA-azide, 1.25 mM, 1 μL, final concentration of 25 μM) in the presence of tris(2-carboxyethyl)phosphine (TCEP, 50 mM fresh in water, 1 μL, final concentration of 1 mM), tris[(1-benzyl-1H-1,2,3-triazol-4-yl)methyl]amine (TBTA, 1.7 mM in 4:1 t-butanol/DMSO, 3 μL, final concentration of 100 μM) and CuSO4 (50 mM, 1 μL, final concentration of 1 mM). For samples of live cell treatment, it started with click reaction without the step of the probe treatment in vitro. After 1 h incubation at room temperature, reactions were quenched by adding 4×SDS-PAGE loading buffer and beta-mercaptoethanol (17 μL) and samples were resolved by SDS-PAGE followed by in-gel fluorescence scanning.

T3 sequence (Q9BQB6 whole entry): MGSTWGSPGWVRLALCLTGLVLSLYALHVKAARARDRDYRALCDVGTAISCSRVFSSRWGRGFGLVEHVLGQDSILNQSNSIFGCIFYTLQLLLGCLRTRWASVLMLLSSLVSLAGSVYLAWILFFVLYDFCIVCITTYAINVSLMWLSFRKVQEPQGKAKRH
T2 sequence (Q02750 whole entry): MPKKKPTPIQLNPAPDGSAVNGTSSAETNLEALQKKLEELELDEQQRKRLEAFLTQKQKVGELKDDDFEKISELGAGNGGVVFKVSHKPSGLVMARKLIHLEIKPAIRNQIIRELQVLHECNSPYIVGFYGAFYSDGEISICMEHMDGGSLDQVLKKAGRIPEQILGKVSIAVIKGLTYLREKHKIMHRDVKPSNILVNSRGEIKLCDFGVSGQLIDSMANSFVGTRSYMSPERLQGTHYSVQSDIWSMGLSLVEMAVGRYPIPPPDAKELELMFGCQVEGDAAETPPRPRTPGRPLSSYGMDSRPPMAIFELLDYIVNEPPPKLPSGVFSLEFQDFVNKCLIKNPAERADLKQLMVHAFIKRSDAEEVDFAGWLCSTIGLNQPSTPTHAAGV
T5 sequence (P23743 whole entry): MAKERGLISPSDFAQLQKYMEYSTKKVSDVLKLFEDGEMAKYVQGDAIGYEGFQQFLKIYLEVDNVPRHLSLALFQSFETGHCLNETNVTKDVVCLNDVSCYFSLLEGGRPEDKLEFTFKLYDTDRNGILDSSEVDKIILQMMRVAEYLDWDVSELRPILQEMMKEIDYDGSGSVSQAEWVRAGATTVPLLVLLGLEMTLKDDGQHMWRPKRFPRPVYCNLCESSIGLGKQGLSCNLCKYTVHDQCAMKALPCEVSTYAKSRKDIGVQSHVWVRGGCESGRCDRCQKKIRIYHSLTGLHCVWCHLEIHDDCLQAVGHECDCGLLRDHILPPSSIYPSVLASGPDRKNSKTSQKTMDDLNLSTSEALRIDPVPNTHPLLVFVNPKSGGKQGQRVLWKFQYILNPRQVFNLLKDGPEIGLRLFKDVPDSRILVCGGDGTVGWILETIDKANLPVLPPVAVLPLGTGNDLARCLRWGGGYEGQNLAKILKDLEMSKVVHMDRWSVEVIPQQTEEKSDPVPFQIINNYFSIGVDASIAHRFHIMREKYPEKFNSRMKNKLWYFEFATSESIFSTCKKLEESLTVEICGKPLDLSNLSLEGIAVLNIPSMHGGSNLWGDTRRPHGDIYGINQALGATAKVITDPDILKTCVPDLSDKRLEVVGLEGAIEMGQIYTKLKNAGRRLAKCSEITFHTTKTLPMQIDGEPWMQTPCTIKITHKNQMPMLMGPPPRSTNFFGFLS
T4 sequence (Q9P032 whole entry): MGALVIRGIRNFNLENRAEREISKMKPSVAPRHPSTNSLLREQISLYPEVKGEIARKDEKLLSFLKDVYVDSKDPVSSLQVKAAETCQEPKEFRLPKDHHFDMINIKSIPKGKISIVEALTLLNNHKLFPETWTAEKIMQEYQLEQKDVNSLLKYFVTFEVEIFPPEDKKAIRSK
T1 sequence (P51970 whole entry): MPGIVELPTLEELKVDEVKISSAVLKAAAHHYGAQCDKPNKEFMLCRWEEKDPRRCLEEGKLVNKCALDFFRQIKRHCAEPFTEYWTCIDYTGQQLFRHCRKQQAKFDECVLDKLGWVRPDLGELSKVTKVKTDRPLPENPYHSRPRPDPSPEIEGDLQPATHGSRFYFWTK

Modified Amino Acid Number [1]: 172
Modified Amino Acid Number [2]: 97
Modified Amino Acid Number ([3]; lysine residue 152): 152
Modified Amino Acid Number ([3]; lysine residue 159): 159
Modified Amino Acid Number [4]: 24
fluorescent labeling of recombinant human DGKA [6]: concentration dependent manner
Structure (SMILES): C#CCNC(=O)c1ccc(S(=O)(=O)n2cc(CCN3CCC(=C(c4ccc(F)cc4)c4ccc(F)cc4)CC3)nn2)cc1 [TH211, 4-((4-(2-(4-(Bis(4-fluorophenyl)methylene)piperidin-1-yl)ethyl)-1H-1,2,3-triazol-1-yl)sulfonyl)-N-(prop-2-yn-1-yl)benzamide]
Modified Amino Acid Number ([5]; NDUA5 human, Uniprot Q16718): 30
Modified Amino Acid Number ([5]; NDUB3 human, Uniprot O42676): 39
Modified Amino Acid Number ([5]; NU5M human, Uniprot P03915): 455
Modified Amino Acid Number ([5]; PYRD human, Uniprot Q02127): 166
